Test results taken from US20230203004A1, “RSV INHIBITING 3-SUBSTITUTED QUINOLINE AND CINNOLINE DERIVATIVES” (Janssen Sciences Ireland Unlimited Company, priority 2020, published 2023).
Where two headings read alike, the source gives them in different places.

How the values were obtained:
rgRSV224 virus = assay: Antiviral activity: rgRSV224 (GFP) replication in HeLa cells; type: cell-based, respiratory syncytial virus (RSV); conditions: averaged data of several repeat experiments
In short: (§1)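 HeLa cells infected with GFP-expressing rgRSV224 at MOI 1 in RPMI/10% FBS, 0.05% DMSO, with 9 serial 4-fold compound dilutions; 3 days at 37 °C, GFP read by laser microscopy for EC50. Cytotoxicity: uninfected HeLa cells, 3 days, cellular ATP (ATPlite) for CC50.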

HeLa cells = assay: Cytotoxicity in HeLa cells (ATP content, ATPlite kit); type: cell-based
In short: as §1

[1] = as above; type: cell-based; conditions: human, TOX HELA CC50
In short: as §1

[2] = HeLa cells, rgRSV224 MOI = 1, GFP expression three days post-virus exposure, read-out: RSV HELA EC50
[3] = HeLa cells, three days incubation, ATP content, averaged data of several repeat experiments, read-out: TOX HELA CC50
[4] = read-out: RSV HELA EC50, HeLa cells, rgRSV224 MOI = 1, GFP expression three days post-virus exposure
[5] = human respiratory syncytial virus, HeLa, 72 h, read-out: RSV HELA EC50, HeLa cells, rgRSV224 MOI = 1, GFP expression three days post-virus exposure

SMILES: COc1cc(C(=O)NCC(O)(c2nc(-c3ccc(F)cc3)c(Cl)c(C(C)(C)O)c2F)C(F)(F)F)cc2cc(C)nnc12 (single isomer, unassigned; (+)) [compound 248, (+)-N-{2-[5-Chloro-3-Fluoro-6-(4-Fluorophenyl)-4-(2-Hydroxypropan-2-yl)Pyridin-2-yl]-3,3,3-Trifluoro-2-Hydroxypropyl}-8-Methoxv-3-Methylcinnoline-6-Carboxamide]
- EC50 (rgRSV224 virus; [2]): 500 nM
- CC50 (HeLa cells; [3]): 41 µM

SMILES: Cc1cc2cc(C(=O)NCC(O)(c3nc(-c4ccc(F)cc4)c(F)c(C(C)(C)O)c3F)C(F)(F)F)cc(OC3CC3)c2nn1 (single isomer, unassigned; (-)) [compound 262, (-)(Cyclopropyloxy)-N-{2-[3,5-Difluoro-6-(4-Fluorophenyl)-4-(2-Hydroxypropan-2-yl)Pyridin-2-yl]-3,3,3-Trifluoro-2-Hydroxypropyl}-3-Methylcinnoline-6-Carboxamide]
- EC50 (rgRSV224 virus; [2]): 1.9 nM
- CC50 (HeLa cells; [3]): 45 µM

SMILES: COc1cc(C(=O)NCC(O)(c2cc(C(C)(C)O)c(F)c(-c3ccc(F)cc3)n2)C(F)F)cc2cc(C)c(F)nc12 (single isomer, unassigned; (-)) [compound 214, (-)-N-{3,3-Difluoro-2-[5-Fluoro-6-(4-Fluorophenyl)-4-(2-Hydroxypropan-2-yl)Pyridin-2-yl]-2-Hydroxypropyl}-2-Fluoro-8-Methoxy-3-Methylquinoline-6-Carboxamide]
- EC50 (rgRSV224 virus; [4]): 1.4 nM
- CC50 (HeLa cells; human, 3 days): 28 µM

SMILES: Cc1cc2cc(C(=O)NC[C@](O)(c3cc(C(C)(C)O)c(F)c(-c4ccc(F)cc4)n3)C3(F)CC3)cc(OC3CC3)c2nn1 [compound 317, (-)Cyclopropoxy-N-(2-(5-Fluoro-6-(4-Fluorophenyl)-4-(2-Hydroxypropan-2-yl)Pyridin-2-yl)-2-(1-Fluorocyclopropyl)-2-Hydroxyethyl)-3-Methylcinnoline-6-Carboxamide]
- EC50 (rgRSV224 virus; [4]): 0.87 nM
- CC50 (HeLa cells; human, 3 days): 29 µM

SMILES: COc1cc(C(=O)NCC(O)(c2cc(C(C)(C)O)c(F)c(-c3ccc(F)c(F)c3)n2)C2CC2)cc2cc(C)nnc12 (single isomer, unassigned; (-)) [compound 256]
- EC50 (rgRSV224 virus; [2]): 0.19 nM
- CC50 (HeLa cells; [3]): 33 µM

SMILES: COc1cc(C(=O)NCC(O)(c2cc(C(C)(C)O)c(F)c(-c3ccc(F)cc3)n2)C(F)F)cc2cc(C)cnc12 (single isomer, unassigned; (-)) [compound 204, (-)-N-{3,3-Difluoro-2-[5-Fluoro-6-(4-Fluorophenyl)-4-(2-Hydroxypropan-2-yl)Pyridin-2-yl]-2-Hydroxypropyl}-8-Methoxy-3-Methylquinoline-6-Carboxamide]
- EC50 (rgRSV224 virus; [4]): 1 nM
- CC50 (HeLa cells; human, 3 days): 48 µM

SMILES: Cc1cc2cc(C(=O)NCC(O)(c3nc(-c4ccc(F)cc4)c(Cl)c(C(C)(C)O)c3F)C(F)(F)F)cc(OC3CC3)c2nn1 (single isomer, unassigned; (-)) [compound 263]
- EC50 (rgRSV224 virus; [2]): 2.7 nM
- CC50 (HeLa cells; [3]): 47 µM

SMILES: COc1cc(C(=O)NCC(O)(c2cc(C(C)(C)O)c(Cl)c(-c3ccc(F)cc3)n2)C(C)C)cc2cc(C)nnc12 (single isomer, unassigned; (-)) [compound 231, (-)-N-{2-[5-Chloro-6-(4-Fluorophenyl)-4-(2-Hydroxypropan-2-yl)Pyridin-2-yl]-2-Hydroxy-3-Methylbutyl}-8-Methoxy-3-Methylcinnolme-6-Carboxamide]
- EC50 (rgRSV224 virus; [2]): 0.41 nM
- CC50 (HeLa cells; [3]): 21 µM

SMILES: COc1cc(C(=O)NC[C@@](O)(c2nc(-c3ccc(F)cc3)c(F)c(C(C)(C)O)c2C)C2CC2)cc2cc(C)nnc12 [compound 245]
- EC50 (rgRSV224 virus; [2]): 2.9 nM
- CC50 (HeLa cells): 48 µM

SMILES: COc1cc(C(=O)NC[C@](O)(c2nc(-c3ccc(F)cc3)c(F)c(C(C)(C)O)c2C)C2CC2)cc2cc(C)nnc12 [compound 246]
- EC50 (rgRSV224 virus; [2]): 200 nM
- CC50 (HeLa cells): 46 µM

SMILES: COc1cc(C(=O)NCC(O)(c2cc(C(C)(C)O)c(F)c(-c3ccc(F)cc3)n2)C(F)F)cc2cc(C)nnc12 (single isomer, unassigned; (-)) [compound 250, (-)-N-{3,3-Difluoro-2-[5-Fluoro-6-(4-Fluorophenyl)-4-(2-Hydroxypropan-2-yl)Pyridin-2-yl]-2-Hydroxypropyl}-8-Methoxy-3-Methylcinnoline-6-Carboxamide]
- EC50 (rgRSV224 virus; [4]): 1.4 nM
- CC50 (HeLa cells; human, 3 days): 40 µM

SMILES: Cc1cc2cc(C(=O)NC[C@](O)(c3cc(C(C)(C)O)c(F)c(-c4ccc(F)cc4)n3)C3(F)CC3)cc(OC3CC3)c2nn1 [compound 335, (-)Cyclopropoxy-N-(2-(5-Fluoro-6-(4-Fluorophenyl)-4-(2-Hydroxypropan-2-yl)Pyridin-2-yl)-2-(1-Fluorocyclopropyl)-2-Hydroxyethyl)-3-Methylcinnoline-6-Carboxamide]
- EC50 (rgRSV224 virus; [4]): 21 nM
- CC50 (HeLa cells; human, 3 days): ~14 µM

SMILES: COc1cc(C(=O)NCC(O)(c2cc(C(C)(C)O)c(F)c(-c3ccc(C(F)(F)F)cc3)n2)C2CC2)cc2cc(C)nnc12 (single isomer, unassigned; (-)) [compound 253]
- EC50 (rgRSV224 virus; [2]): 0.25 nM
- CC50 (HeLa cells; [3]): 13 µM

SMILES: COc1cc(C(=O)NC[C@](O)(c2cc(C(C)(C)O)c(F)c(-c3ccc(F)c(F)c3)n2)C(F)(F)F)cc2cc(C(F)F)cnc12 [compound 330, (-)(Difluoromethyl)-8-Methoxy-N-(3,3,3-Trifluoro-2-(5-Fluoro-6-(3,4-Difluorophenyl)-4-(2-Hydroxypropan-2-yl)Pyridin-2-yl)-2-Hydroxypropyl)Quinoline-6-Carboxamide]
- EC50 (rgRSV224 virus; [5]): 10 nM
- CC50 at 3 days [1]: 13 µM

SMILES: COc1cc(C(=O)NCC(O)(c2cc(C(C)(C)O)c(F)c(-c3cccc(F)c3)n2)C2CC2)cc2cc(C)nnc12 (single isomer, unassigned; (-)) [compound 255, (-)-N-{2-Cyclopropyl-2-[5-Fluoro-6-(3-Fluorophenyl)-4-(2-Hydroxypropan-2-yl)Pyridin-2-yl]-2-Hydroxyethyl}-8-Methoxy-3-Methylcinnoline-6-Carboxamide]
- EC50 (rgRSV224 virus; [5]): 0.81 nM
- CC50 at 3 days [1]: 44 µM

SMILES: [2H]C([2H])([2H])Oc1cc(C(=O)NC[C@](O)(c2cc(C(C)(C)O)c(F)c(-c3ccc(F)cc3)n2)C2CC2)cc2cc(C)nnc12 [compound 290]
- EC50 (rgRSV224 virus; [5]): 0.21 nM
- CC50 at 3 days [1]: 28 µM

SMILES: Cc1cnc2c(OC3CC3)cc(C(=O)NC[C@](O)(c3cc(C(C)(C)O)c(F)c(-c4ccc(F)c(F)c4)n3)C3CC3)cc2c1 [compound 225, (-)-N-{2-Cyclopropyl-2-[6-(3,4-Difluorophenyl)-5-Fluoro-4-(2-Hydroxypropan-2-yl)Pyridin-2-yl]-2-Hydroxyethyl}-8-(Cyclopropyloxy)-3-Methylquinoline-6-Carboxamide]
- EC50 (rgRSV224 virus; [5]): 0.59 nM
- CC50 at 3 days [1]: 15 µM

SMILES: Cc1cc2cc(C(=O)NC[C@](O)(c3cc(C(C)(C)O)c(F)c(-c4ccc(F)cc4)n3)C(F)F)cc(OC3CC3)c2nn1 [compound 308, (-)Cyclopropoxy-N-(3,3-Difluoro-2-(5-Fluoro-6-(4-Fluorophenyl)-4-(2-Hydroxypropan-2-yl)Pyridin-2-yl)-2-Hydroxypropyl)-3-Methylcinnoline-6-Carboxamide]
- EC50 (rgRSV224 virus; [5]): 2.3 nM
- CC50 at 3 days [1]: 38 µM
